Key:
Assay in all cases: pIC50, kinobeads binding competition
UniProt O95382 = biological target: T1, UniProt O95382; details: cell material: Lysate mix
T1 sequence (whole entry): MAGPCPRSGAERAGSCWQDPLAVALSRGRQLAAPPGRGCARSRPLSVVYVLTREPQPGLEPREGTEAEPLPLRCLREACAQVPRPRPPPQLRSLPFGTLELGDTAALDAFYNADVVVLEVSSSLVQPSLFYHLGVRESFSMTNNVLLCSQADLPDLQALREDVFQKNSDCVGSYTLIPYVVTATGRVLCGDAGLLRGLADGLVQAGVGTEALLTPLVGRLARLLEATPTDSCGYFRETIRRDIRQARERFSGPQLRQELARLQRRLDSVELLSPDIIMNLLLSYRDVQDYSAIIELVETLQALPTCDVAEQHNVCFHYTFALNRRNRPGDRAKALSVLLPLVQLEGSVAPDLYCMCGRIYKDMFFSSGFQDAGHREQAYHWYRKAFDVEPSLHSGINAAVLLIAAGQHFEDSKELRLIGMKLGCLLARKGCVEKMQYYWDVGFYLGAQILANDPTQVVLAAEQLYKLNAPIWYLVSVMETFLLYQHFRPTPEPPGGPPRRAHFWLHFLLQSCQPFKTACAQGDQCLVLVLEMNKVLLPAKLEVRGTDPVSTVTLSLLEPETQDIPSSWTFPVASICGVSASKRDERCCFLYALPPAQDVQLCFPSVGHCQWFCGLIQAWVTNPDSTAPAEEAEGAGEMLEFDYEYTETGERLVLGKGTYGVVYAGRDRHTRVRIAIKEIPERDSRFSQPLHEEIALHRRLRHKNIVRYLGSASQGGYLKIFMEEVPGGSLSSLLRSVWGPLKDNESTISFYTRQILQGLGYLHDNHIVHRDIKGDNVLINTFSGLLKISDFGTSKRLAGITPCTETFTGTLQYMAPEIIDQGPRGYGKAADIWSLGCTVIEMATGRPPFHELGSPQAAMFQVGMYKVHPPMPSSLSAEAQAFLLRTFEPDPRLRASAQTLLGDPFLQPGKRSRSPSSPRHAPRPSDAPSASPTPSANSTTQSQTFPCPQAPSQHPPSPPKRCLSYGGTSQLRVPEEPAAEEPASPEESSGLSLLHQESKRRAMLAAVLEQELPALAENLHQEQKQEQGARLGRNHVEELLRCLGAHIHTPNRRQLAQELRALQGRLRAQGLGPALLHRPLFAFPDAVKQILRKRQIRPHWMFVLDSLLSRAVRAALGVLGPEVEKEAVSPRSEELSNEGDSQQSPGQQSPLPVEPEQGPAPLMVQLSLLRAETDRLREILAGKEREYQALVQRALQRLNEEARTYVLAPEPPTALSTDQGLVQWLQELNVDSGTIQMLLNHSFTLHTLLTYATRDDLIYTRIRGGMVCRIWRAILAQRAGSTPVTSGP
Procedure, shortened: (§1)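 Nine compound concentrations were tested, starting at 30 μM in 1:4 steps on live Jurkat cells (60 min, 37 °C, then lysis) or in 1:5 steps on Jurkat lysate or a 1:1:1:1 HEK293/K-562/HepG2/placenta lysate mix (60 min, 4 °C). Kinobeads-bound proteins were digested and quantified with TMT10 LC-MS/MS. pIC50 values are from logistic dose-response fits in the R drc package of fold changes relative to vehicle, from biological duplicates.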

NEK7 = NEK7 (UniProt Q8TDX7)
Sequence of NEK7 (Q8TDX7 whole entry, looked up): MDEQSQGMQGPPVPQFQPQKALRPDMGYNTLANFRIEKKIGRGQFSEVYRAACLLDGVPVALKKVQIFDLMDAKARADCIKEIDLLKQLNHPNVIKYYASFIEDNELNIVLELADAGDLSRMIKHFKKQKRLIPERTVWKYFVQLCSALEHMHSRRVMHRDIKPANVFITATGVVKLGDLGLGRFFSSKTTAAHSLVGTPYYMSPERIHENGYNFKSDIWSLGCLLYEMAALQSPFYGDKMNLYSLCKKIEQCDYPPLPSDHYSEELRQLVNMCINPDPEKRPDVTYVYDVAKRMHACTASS
Procedure, shortened: as §1

BMPR2 = biological target: T2, BMPR2 (UniProt Q13873)
T2 sequence (whole entry): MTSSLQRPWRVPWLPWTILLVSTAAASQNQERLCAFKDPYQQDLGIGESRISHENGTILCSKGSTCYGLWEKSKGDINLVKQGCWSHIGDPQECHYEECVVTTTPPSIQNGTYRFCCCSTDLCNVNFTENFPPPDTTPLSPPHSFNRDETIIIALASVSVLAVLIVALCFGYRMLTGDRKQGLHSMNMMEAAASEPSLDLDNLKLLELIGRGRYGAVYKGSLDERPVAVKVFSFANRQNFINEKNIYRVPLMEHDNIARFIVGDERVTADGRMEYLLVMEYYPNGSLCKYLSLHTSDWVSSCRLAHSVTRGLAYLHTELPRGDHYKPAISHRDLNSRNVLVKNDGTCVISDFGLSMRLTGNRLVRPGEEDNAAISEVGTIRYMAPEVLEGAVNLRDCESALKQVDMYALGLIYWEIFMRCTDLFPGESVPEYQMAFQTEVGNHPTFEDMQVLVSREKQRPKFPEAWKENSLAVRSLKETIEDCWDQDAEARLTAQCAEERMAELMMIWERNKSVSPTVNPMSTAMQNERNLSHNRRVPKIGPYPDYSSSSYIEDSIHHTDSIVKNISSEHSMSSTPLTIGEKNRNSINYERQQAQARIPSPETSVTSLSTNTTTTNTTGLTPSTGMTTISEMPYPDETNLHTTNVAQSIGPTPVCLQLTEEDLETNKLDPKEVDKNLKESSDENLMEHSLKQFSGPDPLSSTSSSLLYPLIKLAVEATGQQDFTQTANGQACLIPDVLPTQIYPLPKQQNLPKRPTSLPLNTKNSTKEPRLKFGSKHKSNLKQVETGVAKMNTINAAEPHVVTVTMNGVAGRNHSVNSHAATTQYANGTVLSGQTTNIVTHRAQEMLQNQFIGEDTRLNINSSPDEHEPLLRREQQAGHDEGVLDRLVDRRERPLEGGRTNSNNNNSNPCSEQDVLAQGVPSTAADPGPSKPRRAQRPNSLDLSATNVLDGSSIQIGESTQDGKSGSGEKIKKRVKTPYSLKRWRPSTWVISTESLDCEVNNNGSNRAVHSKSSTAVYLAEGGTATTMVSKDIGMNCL
Procedure, shortened: as §1

MAP4K5 = MAP4K5 (UniProt Q9Y4K4)
Sequence of MAP4K5 (Q9Y4K4 whole entry, looked up): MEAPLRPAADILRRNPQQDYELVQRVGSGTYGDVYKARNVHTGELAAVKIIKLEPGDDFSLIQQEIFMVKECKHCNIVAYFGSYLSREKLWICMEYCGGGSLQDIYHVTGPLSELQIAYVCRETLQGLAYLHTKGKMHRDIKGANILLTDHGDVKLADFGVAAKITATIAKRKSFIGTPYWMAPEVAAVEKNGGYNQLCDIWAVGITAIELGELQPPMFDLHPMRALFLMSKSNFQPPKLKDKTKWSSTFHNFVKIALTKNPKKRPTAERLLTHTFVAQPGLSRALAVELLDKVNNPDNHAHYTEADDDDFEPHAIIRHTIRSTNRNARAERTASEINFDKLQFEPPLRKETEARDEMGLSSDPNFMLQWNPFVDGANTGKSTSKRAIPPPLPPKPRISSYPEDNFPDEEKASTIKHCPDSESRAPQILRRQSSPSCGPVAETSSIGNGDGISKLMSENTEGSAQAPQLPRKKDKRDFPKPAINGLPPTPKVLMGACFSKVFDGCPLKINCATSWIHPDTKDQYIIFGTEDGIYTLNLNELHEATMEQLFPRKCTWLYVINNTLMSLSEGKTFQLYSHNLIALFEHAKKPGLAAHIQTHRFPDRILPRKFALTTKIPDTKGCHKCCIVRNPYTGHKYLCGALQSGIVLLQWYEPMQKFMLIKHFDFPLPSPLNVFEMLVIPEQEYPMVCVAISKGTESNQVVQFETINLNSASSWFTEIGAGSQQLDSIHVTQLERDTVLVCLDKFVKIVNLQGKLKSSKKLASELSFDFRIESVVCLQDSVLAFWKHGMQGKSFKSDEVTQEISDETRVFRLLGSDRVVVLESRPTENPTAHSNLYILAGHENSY
Procedure, shortened: as §1

EGFR = EGFR (UniProt P00533); details: cell material: Lysate mix
Procedure, shortened: as §1

UniProt Q16584 = biological target: UniProt Q16584
Sequence of UniProt Q16584 (Q16584 whole entry, looked up): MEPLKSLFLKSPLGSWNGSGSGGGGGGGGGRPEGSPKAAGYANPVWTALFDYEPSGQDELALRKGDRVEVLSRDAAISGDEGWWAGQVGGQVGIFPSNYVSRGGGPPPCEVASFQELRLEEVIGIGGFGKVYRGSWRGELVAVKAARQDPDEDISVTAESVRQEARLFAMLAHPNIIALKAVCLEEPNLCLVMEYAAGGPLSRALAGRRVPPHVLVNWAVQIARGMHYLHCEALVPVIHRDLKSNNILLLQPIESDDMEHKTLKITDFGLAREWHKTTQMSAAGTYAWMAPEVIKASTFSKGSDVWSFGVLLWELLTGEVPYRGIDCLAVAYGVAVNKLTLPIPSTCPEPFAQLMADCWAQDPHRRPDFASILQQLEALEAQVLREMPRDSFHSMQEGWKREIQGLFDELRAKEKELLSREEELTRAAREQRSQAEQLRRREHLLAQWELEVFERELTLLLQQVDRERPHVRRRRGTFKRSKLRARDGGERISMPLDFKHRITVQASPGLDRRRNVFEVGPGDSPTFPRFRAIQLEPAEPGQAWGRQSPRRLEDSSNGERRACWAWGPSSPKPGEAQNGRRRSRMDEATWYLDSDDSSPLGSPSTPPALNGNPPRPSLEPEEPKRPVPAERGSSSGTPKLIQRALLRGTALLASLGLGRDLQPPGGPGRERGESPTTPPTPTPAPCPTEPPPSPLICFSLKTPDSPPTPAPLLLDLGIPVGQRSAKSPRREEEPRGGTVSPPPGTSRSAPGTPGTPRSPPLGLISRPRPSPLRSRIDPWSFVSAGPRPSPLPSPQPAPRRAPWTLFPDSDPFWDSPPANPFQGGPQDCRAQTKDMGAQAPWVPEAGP
Procedure, shortened: as §1

UniProt P36507 = biological target: UniProt P36507
Sequence of UniProt P36507 (P36507 whole entry): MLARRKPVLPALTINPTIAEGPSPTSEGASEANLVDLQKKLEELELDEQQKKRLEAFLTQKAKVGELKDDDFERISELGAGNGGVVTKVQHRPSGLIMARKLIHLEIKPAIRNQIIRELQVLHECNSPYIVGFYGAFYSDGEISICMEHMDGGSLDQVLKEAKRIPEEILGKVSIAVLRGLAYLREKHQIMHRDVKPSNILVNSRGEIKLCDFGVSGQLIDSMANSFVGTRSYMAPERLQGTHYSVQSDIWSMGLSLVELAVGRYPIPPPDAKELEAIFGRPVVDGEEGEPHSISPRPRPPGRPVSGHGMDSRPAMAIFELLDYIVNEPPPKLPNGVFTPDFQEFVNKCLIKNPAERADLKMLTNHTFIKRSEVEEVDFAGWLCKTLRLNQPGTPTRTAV
Procedure, shortened: as §1

PCTK3 = PCTK3 (UniProt Q07002)
Sequence of PCTK3 (Q07002 whole entry): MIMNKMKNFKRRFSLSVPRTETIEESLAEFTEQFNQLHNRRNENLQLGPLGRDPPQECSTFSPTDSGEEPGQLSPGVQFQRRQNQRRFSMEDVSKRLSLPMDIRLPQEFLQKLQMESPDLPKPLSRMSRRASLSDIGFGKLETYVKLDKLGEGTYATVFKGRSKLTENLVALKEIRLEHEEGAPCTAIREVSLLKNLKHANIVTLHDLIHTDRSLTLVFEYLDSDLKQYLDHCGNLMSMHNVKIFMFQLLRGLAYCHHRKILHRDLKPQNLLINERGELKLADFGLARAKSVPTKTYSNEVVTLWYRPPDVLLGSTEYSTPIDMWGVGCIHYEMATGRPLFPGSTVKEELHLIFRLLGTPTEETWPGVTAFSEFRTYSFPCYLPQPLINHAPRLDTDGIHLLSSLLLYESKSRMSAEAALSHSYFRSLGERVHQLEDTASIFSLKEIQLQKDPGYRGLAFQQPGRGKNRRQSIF
Procedure, shortened: as §1

UniProt P17252 = biological target: UniProt P17252
Procedure, shortened: as §1

UniProt Q9NYL2 = biological target: UniProt Q9NYL2
Sequence of UniProt Q9NYL2 (Q9NYL2 whole entry, looked up): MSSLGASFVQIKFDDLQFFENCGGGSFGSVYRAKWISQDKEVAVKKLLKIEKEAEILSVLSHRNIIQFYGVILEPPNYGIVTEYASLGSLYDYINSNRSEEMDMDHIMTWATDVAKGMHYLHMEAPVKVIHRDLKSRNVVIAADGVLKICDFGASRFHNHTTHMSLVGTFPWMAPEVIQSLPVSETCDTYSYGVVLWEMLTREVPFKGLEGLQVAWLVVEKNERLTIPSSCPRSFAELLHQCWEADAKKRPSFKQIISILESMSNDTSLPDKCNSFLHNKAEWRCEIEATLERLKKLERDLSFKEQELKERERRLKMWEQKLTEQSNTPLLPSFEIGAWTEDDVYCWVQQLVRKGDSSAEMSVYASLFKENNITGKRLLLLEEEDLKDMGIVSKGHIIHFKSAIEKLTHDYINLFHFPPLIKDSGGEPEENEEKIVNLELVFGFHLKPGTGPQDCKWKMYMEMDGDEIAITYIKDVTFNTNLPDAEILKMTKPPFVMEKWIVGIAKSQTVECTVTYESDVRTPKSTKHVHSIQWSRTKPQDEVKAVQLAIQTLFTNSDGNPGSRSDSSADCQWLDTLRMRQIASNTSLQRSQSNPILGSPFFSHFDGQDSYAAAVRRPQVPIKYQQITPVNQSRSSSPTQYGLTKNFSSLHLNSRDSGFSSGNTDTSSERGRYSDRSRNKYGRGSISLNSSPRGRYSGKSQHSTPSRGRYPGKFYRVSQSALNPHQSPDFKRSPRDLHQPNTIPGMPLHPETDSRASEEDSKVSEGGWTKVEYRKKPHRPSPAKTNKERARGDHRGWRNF
Procedure, shortened: as §1

UniProt P50613 = biological target: UniProt P50613
Sequence of UniProt P50613 (P50613 whole entry): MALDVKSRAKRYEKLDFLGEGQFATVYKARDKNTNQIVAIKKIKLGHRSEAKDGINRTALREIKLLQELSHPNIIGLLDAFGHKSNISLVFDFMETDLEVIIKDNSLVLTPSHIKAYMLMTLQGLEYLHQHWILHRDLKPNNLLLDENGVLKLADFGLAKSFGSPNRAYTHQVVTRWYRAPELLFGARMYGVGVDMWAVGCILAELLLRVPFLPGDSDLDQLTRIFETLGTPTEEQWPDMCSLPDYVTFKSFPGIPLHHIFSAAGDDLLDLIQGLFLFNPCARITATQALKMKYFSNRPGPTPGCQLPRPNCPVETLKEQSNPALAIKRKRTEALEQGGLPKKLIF
Procedure, shortened: as §1

Compound | pIC50 (UniProt O95382) | pIC50 (NEK7; cell material: Lysate mix) | pIC50 (BMPR2; cell material: Lysate mix) | pIC50 (MAP4K5; cell material: Lysate mix) | pIC50 (EGFR) | pIC50 (UniProt Q16584; cell material: Lysate mix) | pIC50 (UniProt P36507; cell material: Lysate mix) | pIC50 (PCTK3; cell material: Lysate mix) | pIC50 (UniProt P17252; cell material: Lysate mix) | pIC50 (UniProt Q9NYL2; cell material: Lysate mix) | pIC50 (UniProt P50613; cell material: Lysate mix) | pIC50 (NEK7; cell material: Jurkat cells) | pIC50 (NEK7; cell material: Jurkat lysate) | pIC50 (BMPR2; cell material: Jurkat cells) | pIC50 (BMPR2; cell material: Jurkat lysate) | pIC50 (MAP4K5; cell material: Jurkat cells) | pIC50 (MAP4K5; cell material: Jurkat lysate) | pIC50 (UniProt Q16584; cell material: Jurkat cells) | pIC50 (UniProt Q16584; cell material: Jurkat lysate) | pIC50 (UniProt P36507; cell material: Jurkat cells) | pIC50 (UniProt P36507; cell material: Jurkat lysate) | pIC50 (PCTK3; cell material: Jurkat cells) | pIC50 (PCTK3; cell material: Jurkat lysate) | pIC50 (UniProt P17252; cell material: Jurkat lysate) | pIC50 (UniProt Q9NYL2; cell material: Jurkat cells) | pIC50 (UniProt Q9NYL2; cell material: Jurkat lysate) | pIC50 (UniProt P50613; cell material: Jurkat cells) | pIC50 (UniProt P50613; cell material: Jurkat lysate) | pIC50 (UniProt P17252; cell material: Jurkat cells)
O=C(NCCNC(=O)c1cc(Nc2cc(C3CC3)[nH]n2)nc(N2CCN(Cc3ccc(S(=O)(=O)F)cc3)CC2)n1)OC1CC/C=C/CCC1 (stereo not given) | < 4.52 | < 4.52 | < 4.52 | < 4.52 | < 4.52 | < 4.52 | < 4.52 | < 4.52 | < 4.52 | < 4.52 | – | 6.85 | < 4.52 | < 4.52 | < 4.52 | 5.8 | < 4.52 | 5.96 | < 4.52 | 5.27 | < 4.52 | 5.7 | < 4.52 | < 4.52 | < 4.52 | < 4.52 | 6.12 | 4.7 | –
Cc1cc(Nc2cc(C(=O)NCCNC(=O)OC3CC/C=C/CCC3)nc(N3CCN(Cc4ccc(S(=O)(=O)F)cc4)CC3)n2)n[nH]1 (stereo not given) | < 4.52 | < 4.52 | < 4.52 | < 4.52 | < 4.52 | < 4.52 | < 4.52 | < 4.52 | < 4.52 | < 4.52 | < 4.52 | – | – | – | – | – | – | – | – | – | – | – | – | – | – | – | – | – | –
CCNC(=O)c1cc(Nc2cc(C3CC3)[nH]n2)nc(N2CCN(Cc3ccc(S(=O)(=O)F)cc3)CC2)n1 | < 4.52 | < 4.52 | < 4.52 | 5.77 | 5.3 | 5.29 | 5.73 | 5.36 | 5.11 | < 4.52 | 6.33 | – | – | – | – | – | – | – | – | – | – | – | – | – | – | – | – | – | –
C#CCNC(=O)c1cc(Nc2cc(C3CC3)[nH]n2)nc(N2CCN(Cc3ccc(S(=O)(=O)F)cc3)CC2)n1 | < 4.52 | < 4.52 | < 4.52 | 6.21 | 5.4 | 5.64 | 5.72 | 5.2 | < 4.52 | < 4.52 | 6.35 | 6.88 | < 4.52 | 5.72 | < 4.52 | 6.45 | 5.53 | 6.26 | 5.22 | 6.02 | < 4.52 | 6.2 | < 4.52 | < 4.52 | 5.56 | < 4.52 | 6.47 | 5.78 | 5.48

Second part, led by results:

pIC50 (UniProt O95382) | pIC50 (NEK7; cell material: Lysate mix) | pIC50 (BMPR2; cell material: Lysate mix) | pIC50 (MAP4K5; cell material: Lysate mix) | pIC50 (EGFR) | pIC50 (UniProt Q16584; cell material: Lysate mix) | pIC50 (UniProt P36507; cell material: Lysate mix) | pIC50 (PCTK3; cell material: Lysate mix) | pIC50 (UniProt P17252; cell material: Lysate mix) | pIC50 (UniProt Q9NYL2; cell material: Lysate mix) | pIC50 (UniProt P50613; cell material: Lysate mix) | Compound | pIC50 (NEK7; cell material: Jurkat cells) | pIC50 (NEK7; cell material: Jurkat lysate) | pIC50 (BMPR2; cell material: Jurkat cells) | pIC50 (BMPR2; cell material: Jurkat lysate) | pIC50 (MAP4K5; cell material: Jurkat cells) | pIC50 (MAP4K5; cell material: Jurkat lysate) | pIC50 (UniProt Q16584; cell material: Jurkat cells) | pIC50 (UniProt Q16584; cell material: Jurkat lysate) | pIC50 (UniProt P36507; cell material: Jurkat cells) | pIC50 (UniProt P36507; cell material: Jurkat lysate) | pIC50 (PCTK3; cell material: Jurkat cells) | pIC50 (PCTK3; cell material: Jurkat lysate) | pIC50 (UniProt P17252; cell material: Jurkat lysate) | pIC50 (UniProt Q9NYL2; cell material: Jurkat cells) | pIC50 (UniProt Q9NYL2; cell material: Jurkat lysate) | pIC50 (UniProt P50613; cell material: Jurkat cells) | pIC50 (UniProt P50613; cell material: Jurkat lysate) | pIC50 (UniProt P17252; cell material: Jurkat cells)
4.66 | < 4.52 | < 4.52 | 5.33 | 5.78 | < 4.52 | < 4.52 | < 4.52 | < 4.52 | < 4.52 | 5 | CCNC(=O)c1cc(Nc2cc(C)[nH]n2)nc(N2CCN(Cc3ccc(S(=O)(=O)F)cc3)CC2)n1 | – | – | – | – | – | – | – | – | – | – | – | – | – | – | – | – | – | –
4.63 | < 4.52 | < 4.52 | 5.53 | 5.56 | < 4.52 | < 4.52 | < 4.52 | < 4.52 | < 4.52 | 5.14 | C#CCNC(=O)c1cc(Nc2cc(C)[nH]n2)nc(N2CCN(Cc3ccc(S(=O)(=O)F)cc3)CC2)n1 | – | – | – | – | – | – | – | – | – | – | – | – | – | – | – | – | – | –

Source: the supplement of paper PMC12076712
